Values quoted from earlier work in US8536169B2, “Compounds” (Glaxo Group Limited, priority 2008, dated 2013).

Columns and labels:
neutrophils [1] = tested on: neutrophils
neutrophils [2] = tested on: neutrophils; remark: listed apart in the source
Class I PI3-kinases = conditions: read-out: IC50 against each of the various Class I PI3-kinases
neutrophils [3] = conditions: treatment of neutrophils; Thelen et al. 1994

## O=c1cc(N2CCOCC2)oc2c(-c3ccccc3)cccc12 [LY294002]
phospholipases
  inhibitory activity on phospholipases: some inhibitory activity
Neutrophils [1]
  neutrophil migration: block
Neutrophils [2]
  superoxide release: block

## wortmannin
Class I PI3-kinases
  IC50: 1 to 10 nM
Neutrophils [3]
  fMLP-induced respiratory burst response: prevents
Neutrophils [1]
  neutrophil migration: block
Neutrophils [2]
  superoxide release: block
